According to patent US9161944B2, “Method for preventing cancer metastasis” (INSERM (INSTITUT NATIONAL DE LA SANTE ET DE LA SANTE ET DE …, priority 2010, dated 2015):

Legend:
[1] = tested on: MDA-MB-435s cells expressing luciferase; assay: Experimental metastasis model, cells injected into tail vein, BLI; assay type: in vivo, NMRI nude mice
Method: Female NMRI nude mice, 6 weeks old, were purchased from Janvier laboratories. Mice were bred and housed at INSERM, U892, University of Nantes, under the animal care license no 44565.
MDA-MB-435s were incubated with 1 μM JPH1701 or with 2% DMSO/3% ethanol (vehicle) during 24 h and injected (0.75 106) in iv into the lateral tail vein. Next, mice were treated three times a week for 12 weeks with JPH1701 at 15 mg/kg in i.v. or with vehicle.
All of the mice were assessed weekly using whole-body bioluminescent imaging to quantify relative amounts of metastasis burden (ΦImageur™; BIOSPACE Lab, France). Each mouse was given potassium salt of D-luciferin (Interchim) at dose of 150 mg/kg body weight by intraperitoneal injection and anesthetized with Ketamin/xylasin i.p. injection. […] Regions of interest were drawn around the experimental metastases. The amount of metastasis burden within each region of interest was quantified as the relative amount of light produced from the luciferase activity in breast cancer cells and expressed in cpm using the Photovision+ software (version 1.3; Biospace Lab). At necropsy, ex vivo BLI measurement were performed for each tissues collected.
To determine whether a SK3/KCa2.3 blocker such as JPH1701 could prevent metastasis development, we used a model of experimental metastasis with MDA-MB-435s cells expressing the firefly luciferase gene. Cancer cells were injected directly to the systemic circulation into the vein tail. One cohort of mice was treated with JPH1701 three times a week for 12 weeks by i.v. administration. Another cohort was treated with the vehicle in the same conditions. At the end of treatment, metastases were visualized in vivo by bioluminescence imaging (BLI) in 70% (7/10) of control mice and only in 40% (4/10) of JPH1701 treated-mice (Table 4). To go further, mice were sacrificed and detection of metastases in different tissues was performed ex vivo by BLI. The number of positive tissues from each cohort was show in Table 4. Metastatic lesions were detected in all vehicle-treated mice.

[2] = target: T1, SK2 (Homo sapiens, UniProt Q9H2S1); assay: Whole-cell K+ currents in HEK293 cells expressing recombinant SK2; assay type: cell-based; conditions: 10 μM, FIG. 9B
T1 construct: expressed in transfected cells; host or cells: HEK293
Method: FIG. 9. Selectivity effect of JPH1701 on SKCa subtype and on IKCa channels. FIG. 9A) Example of whole-cell K^+ currents recorded in HEK293 cells expressing recombinants SK1, SK2, SK3 and IKCa channels before and after application of 10 μM JPH1701 (upper graphs: SK1 and SK2 respectively, bottom graphs: SK3 and IKCa respectively). Currents were generated by ramp protocol from −100 mV to +60 mV in 500 ms from a constant holding of 0 mV and with a pCa 6. FIG. 9B) Histograms showing the effect of 10 μM JPH1701 on SKCa (SK1, SK2, SK3) and IKCa current amplitudes recorded at 0 mV. […] For each channel (SK1, SK2, SK3 and IKCa) the left column (pale grey) represents the control result and the right column (dark grey) represents the result after JPH1701 application.
The selectivity of JPH1701 toward the others members of the SKCa/IKCa channels was tested. […] The experimental protocol was similar to the one used in FIG. 8. JPH1701 was tested for membrane potential from +60 mV to −100 mV on 500 msec.

[3] = tested on: MDA-MB-435s (SK3+); assay: Cell migration / 2D motility assay (transwell inserts, wound healing); assay type: cell-based, human
From the text: Alternatively, the cell migration inhibitory activity of a compound of formula (I) may be assessed by performing a Wound Healing assay that is disclosed in the examples herein and for which the one skilled in the art may also refer to the article of Rodriguez et al. (2005, Methods Biol Mol, Vol. 294: 23-29). The wound-healing assay is simple, inexpensive, and one of the earliest developed methods to study directional cell migration in vitro. This method mimics cell migration during wound healing in vivo. The basic steps involve creating a “wound” in a cell monolayer, capturing the images at the beginning and at regular intervals during cell migration to close the wound, and comparing the images to quantify the migration rate of the cells. It is particularly suitable for studies on the effects of cell-matrix and cell-cell interactions on cell migration. Cells are seeded in culture dishes and grown until confluence in DMEM supplemented with 10% foetal calf serum. The monolayer is then scratched with a sterile yellow pipette tip. Then, migration of cells to the cleared area is inspected under a microscope. Pictures are taken directly at the time of scratching and after 24 h, so as to determine the ability of the tested cells to migrate.
Wound healing assay: Cells were seeded in culture dishes and grown until confluence in DMEM supplemented with 10% foetal calf serum. The monolayer was scratched with a sterile yellow pipette tip. The migration of cells to the cleared area was inspected under a microscope. Pictures were taken directly at the time of scratching and after 24 h.
At least three independent experiments were each performed in triplicate.

[4] = target: PAF receptor (Homo sapiens, UniProt P25105); assay: 3H-C16-PAF binding, membrane homogenates of CHO cells; parameters: expressed in transfected cells; host or cells: CHO cells (membrane homogenates); conditions: 0.3 and 2 μM, FIG. 11A
Method: FIG. 11: Effects of JPH1701 on PAF receptor, PLC and PKCs activities. FIG. 11A) Histogram showing the percentage of control specific binding of 3H-C16-PAF to recombinant PAF receptor obtained from membrane homogenates of CHO cells by 0.3 and 2 μM edelfosine and by 0.3 and 2 μM JPH1701. FIG. 11B) Histogram showing the percentage of control agonist response (% effect i.e: increase of intracellular calcium concentration) of 0.3 and 2 μM edelfosine and JPH1701 on PAF receptor normalized to the response induced by 100 nM C16-PAF. […] FIG. 11C-D) Dose responses curves showing the effect of JPH1701 on PKCs (FIG. 11C, PKCs are: alpha, Beta 1, Beta 2, Gamma, Delta, Epsilon, Zeta, Eta, Theta, Iota) and PhosphoLipase C (PLC) activities (FIG. 11D).

[5] = 15 mg/kg i.v. three times a week, 12 weeks, N = 10
[6] = 15 mg/kg i.v., 12 weeks, N = 10

PAF receptor, sequence (P25105 whole entry): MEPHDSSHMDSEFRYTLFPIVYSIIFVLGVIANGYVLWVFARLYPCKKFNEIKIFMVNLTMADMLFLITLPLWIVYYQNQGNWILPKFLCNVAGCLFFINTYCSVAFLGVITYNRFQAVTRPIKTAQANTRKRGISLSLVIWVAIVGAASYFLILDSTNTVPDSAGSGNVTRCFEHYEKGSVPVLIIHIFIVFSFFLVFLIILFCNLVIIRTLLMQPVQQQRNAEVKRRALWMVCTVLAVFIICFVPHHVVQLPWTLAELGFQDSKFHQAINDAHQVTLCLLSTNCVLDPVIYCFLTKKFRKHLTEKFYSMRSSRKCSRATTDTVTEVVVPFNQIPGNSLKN
T1 sequence (Q9H2S1 whole entry): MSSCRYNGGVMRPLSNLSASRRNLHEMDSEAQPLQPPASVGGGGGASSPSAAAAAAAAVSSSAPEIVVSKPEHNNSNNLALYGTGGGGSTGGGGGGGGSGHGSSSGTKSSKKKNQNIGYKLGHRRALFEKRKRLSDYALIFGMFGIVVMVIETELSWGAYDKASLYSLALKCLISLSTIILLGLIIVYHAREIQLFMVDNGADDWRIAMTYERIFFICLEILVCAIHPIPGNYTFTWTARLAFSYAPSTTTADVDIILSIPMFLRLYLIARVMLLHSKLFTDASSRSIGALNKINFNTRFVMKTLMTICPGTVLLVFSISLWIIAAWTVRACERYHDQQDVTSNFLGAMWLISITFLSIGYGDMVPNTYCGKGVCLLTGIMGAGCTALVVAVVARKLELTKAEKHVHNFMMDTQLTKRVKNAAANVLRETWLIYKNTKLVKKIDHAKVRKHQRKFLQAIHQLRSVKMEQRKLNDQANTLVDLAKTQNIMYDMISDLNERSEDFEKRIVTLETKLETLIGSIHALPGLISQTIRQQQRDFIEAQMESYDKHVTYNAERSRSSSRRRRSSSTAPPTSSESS

hexadecyloxy-2-O-methyl-sn-glycerol-lactose [JPH1701]
Adverse effects in mice ([1]; 15 mg/kg i.v. three times a week for 12 weeks): No adverse effects
Number of mice with experimental metastases detected ex vivo by BLI [1, 5]: 7
Number of mice with experimental metastases detected in vivo by BLI [1, 5]: 4
Mice with no sign of metastasis development ex vivo ([1]; 15 mg/kg i.v., 12 weeks): 30%
Number of tissues with metastases detected by BLI: column [1, 6]: 2
Number of tissues with metastases detected by BLI: kidney [1, 6]: 0
Number of tissues with metastases detected by BLI: leg [1, 6]: 3
Number of tissues with metastases detected by BLI: liver [1, 6]: 0
Number of tissues with metastases detected by BLI: lung [1, 6]: 5
Number of tissues with metastases detected by BLI: lymph node [1, 6]: 1
Number of tissues with metastases detected by BLI: ovary/uterus [1, 6]: 0
Number of tissues with metastases detected by BLI: spleen [1, 6]: 0
Mice with metastases visualized in vivo by BLI at the end of treatment ([1]; 15 mg/kg i.v., 12 weeks, control 70%): 40%
Metastatic profile ([1]; FIGS. 10A-D): shifted the metastatic profile toward a less one
Additional wait until 75% of mice present detectable metastases (vehicle: week 4) ([1]; mice with metastases in vivo on week 12): 3 weeks
Metastasis appearance, times faster in control group than in treated group ([1]; mice with metastases in vivo on week 12, FIG. 10E): roughly 3 times
Effect on SK2 channels [2]: inactive
Effect on motility of cells with shRNA random (SK3+) compared with wild type ([3]; MDA-MB-435s shRD, FIG. 6E): same inhibition effect
Concentration from which cell migration is inhibited ([3]; MDA-MB-435s wild type, FIG. 6A): ≥ 10 nM
Concentration of maximal effect on cell migration ([3]; MDA-MB-435s wild type, FIG. 6A): around 1 μM
Cell Migration inhibition of MDA-MB-435s (SK3+), Inhibitory effect ([3]; Table 1, concentration 300 nM): 50%
Migration (% of inhibition) ([3]; Table 2, concentration 300 nM): 50%
Effect on cell migration ([3]; summary of table 2): even more effective
Interaction with C16-PAF binding site of PAF receptor [4]: unable to interact
